Source: the supplement of paper PMC10307832

What was measured:
Assay in all cases: relative viability (nuclei count vs DMSO), 5 days (fraction); higher = more cells survive
[1] = compound: CC1=CC=C(C=C1)C(=O)CN2C3=C(CCCC3)SC2=N [Pifithrin_alpha]
In short: (§1)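 Viability is treated-well nuclei as a fraction of vehicle-well nuclei, reported as the median across plates. Before counting, lung cancer cell lines were kept overnight at 37 °C in 1536-well plates, pinned with five √10-spaced library-drug doses on vehicle-anchored plates, and left 5 days without medium change, then fixed, permeabilised and Hoechst-stained in one step, imaged at 4× and counted by MetaXpress. A plate passed only if control CV was below 25% and at least one doubling occurred.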

[2] = compound: CNC(=O)c1ccccc1Sc1ccc2c(/C=C/c3ccccn3)n[nH]c2c1 [Axitinib]
In short: as §1

[3] = compound: Nc1nc(Nc2ccc3c(c2)CC[C@@H](N2CCCC2)CC3)nn1-c1cc2c(nn1)-c1ccccc1CCC2 [Bemcentinib]
In short: as §1

[4] = compound: CNC(=O)c1ccccc1Sc1ccc2c(/C=C/c3ccccn3)n[nH]c2c1 [Axitinib] + Cc1nc(Nc2ncc(C(=O)Nc3c(C)cccc3Cl)s2)cc(N2CCN(CCO)CC2)n1 [Dasatinib] (partner 0.075 µM)
In short: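 Lung cancer cell lines were pin-tool dosed in 1536-well plates on the day after seeding, with either a lone drug or a fixed anchor-drug dose plus five library-drug doses (not always all listed) in √10 steps. Nuclei were counted on 4× images after 5 days. Relative viability is the ratio of treated-well to vehicle-well nuclei counts, with each value a median of duplicate plates.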

Cell Line	relative viability ([1]; 1 µM)	relative viability ([1]; 3.162 µM)	relative viability ([1]; 10 µM)	relative viability ([1]; 31.62 µM)	relative viability ([1]; 100 µM)	relative viability ([2]; 0.005 µM)	relative viability ([2]; 0.01581 µM)	relative viability ([2]; 0.05 µM)	relative viability ([2]; 0.1581 µM)	relative viability ([2]; 0.5 µM)	relative viability ([3]; 0.04 µM)	relative viability ([3]; 0.1265 µM)	relative viability ([3]; 0.4 µM)	relative viability ([3]; 1.265 µM)	relative viability ([3]; 4 µM)	relative viability ([4]; first compound 0.005 µM)	relative viability ([4]; first compound 0.01581 µM)	relative viability ([4]; first compound 0.05 µM)	relative viability ([4]; first compound 0.1581 µM)	relative viability ([4]; first compound 0.5 µM)
NCI-H1437	1.02	1.05	0.953	0.827	0.793	1.05	0.991	0.961	0.983	1.01	0.925	1.01	1.03	0.965	0.969	0.396	0.388	0.448	0.388	0.442
NCI-H1563	0.999	0.996	0.981	0.957	0.895	0.999	0.887	0.973	0.924	0.891	0.993	0.961	0.971	1.14	1.05	0.482	0.456	0.457	0.449	0.426
NCI-H1623	0.905	0.924	0.834	0.677	0.803	1.12	0.945	0.884	1.02	0.984	0.956	0.935	0.971	1.03	0.929	0.574	0.477	0.559	0.528	0.506
NCI-H1650	0.889	0.811	0.787	0.607	0.813	1.07	0.805	1.05	0.822	1.15	0.783	1.01	0.974	0.978	0.861	0.317	0.318	0.324	0.332	0.302
NCI-H1651	1.03	0.998	0.944	0.871	0.944	0.973	0.89	0.963	0.951	1	1.04	1.06	1.08	1.01	1.01	0.482	0.396	0.409	0.404	0.502
NCI-H1666	1.01	0.909	0.837	0.795	0.776	1.06	0.965	0.965	1	0.977	0.902	1.34	1.03	1.06	0.998	0.836	0.838	0.825	0.88	0.829
NCI-H1734	0.885	0.99	0.915	0.751	0.937	0.998	0.951	1.03	0.9	1.03	0.91	1.01	0.982	0.996	1.08	0.515	0.491	0.507	0.499	0.446
NCI-H1755	0.919	0.964	0.882	0.841	1.05	1.02	1.01	1.05	0.992	0.997	1.06	1.05	1.02	1.05	1.08	0.444	0.436	0.479	0.439	0.388
NCI-H1792	0.725	0.938	0.731	0.621	0.886	0.965	0.814	0.855	0.935	0.7	0.877	1.12	1.08	0.841	0.85	0.763	0.749	0.618	0.761	0.838
NCI-H1793	0.734	0.817	0.838	0.823	0.874	1.06	0.833	0.889	0.819	0.647	0.834	1.05	0.882	0.686	0.999	0.406	0.405	0.394	0.293	0.301
NCI-H1915	0.887	1.03	0.737		1.08	1	1.07	0.982	0.99	0.999	1.01	1.1	1.05	0.947	0.958	0.307	0.289	0.315	0.29	0.252
NCI-H1944	0.898	0.826	0.781	0.451	0.71	1.04	0.952	1.02	0.943	0.761	0.968	1.05	0.993	0.941	0.988	0.213	0.223	0.214	0.202	0.188
NCI-H1975	0.861	0.642	0.665	0.623	0.598	1.02	0.927	0.89	0.943	0.985	0.867	1.07	1	0.93	0.973	0.413	0.342	0.393	0.347	0.39
